In ChEMBL document CHEMBL6074621, “Recent advances of honokiol:pharmacological activities, manmade derivatives and structure-activity relationship” (Eur J Med Chem, 2024):
Blank lines part the entries; values can stand above or below the molecule they belong to.

How the values were obtained:
[1] = system: L02; experiment: Antiproliferative activity against human LO2 cells; assay type: functional, cell-based
[2] = system: SMMC-7721; experiment: Antiproliferative activity against human SMMC-7721 cells; assay type: functional, cell-based
[3] = species: Homo sapiens; experiment: Inhibition of human pancreatic lipase at 10 uM relative to control
[4] = system: HCT-116; experiment: Antiproliferative activity against human HCT-116 cells assessed as reduction in cell growth after 72 hrs by MTT assay; assay type: functional, cell-based; details: HCT-116, 72 h
[5] = system: PC-3; experiment: Antiproliferative activity against human PC-3 cells assessed as reduction in cell growth after 72 hrs by MTT assay; assay type: functional, cell-based; details: PC-3, 72 h
[6] = system: HT-29; experiment: Antiproliferative activity against human HT-29 cells assessed as reduction in cell growth after 72 hrs by MTT assay; assay type: functional, cell-based; details: HT-29, 72 h

IC50 [2]: 13.1 µM
Compound: C=CCc1cc(CN2CCC(N)CC2)c(O)c(-c2cc(CC=C)c(O)c(CN3CCC(N)CC3)c2)c1
IC50 [1]: 18 µM

inhibition [3]: 81%
Compound: C/C(Cc1ccc(O)c(-c2ccc3oc(C)cc3c2)c1)=N\NC(=O)c1ccc(O)cc1

IC50 [4]: 9.8 µM
IC50 [5]: 19.8 µM
IC50 [6]: 11.1 µM
Compound: C=CCc1cc(CC=C)c(O)c(-c2cc(CC=C)c(O)c(CC=C)c2)c1
